Reference: US11697798B2, “Enhanced differentiation and maturation of pluripotent stem cell-derived myogenic cells” (Regents of the University of Minnesota, priority 2017, dated 2023)

How the values were obtained:
Type in all cases: cell-based, human
[1] = test system: myotubes derived from hESC-1, hiPSC-1 and hiPSC-2; assay: Small molecule library screening (Tocriscreen Stem Cell Toolbox), MHC/DAPI area ratio; conditions: terminal differentiation
Protocol: After 24 hours, cells were switched to MM with 1 μg/ml Doxycyline and incubated at 37° C. for 2 days. 1/10th of EBs were then plated on gelatin coated T-75 flasks in MM with 1 μg/ml dox and 5 ng/ml human basic fibroblast growth factor (bFGF). After 4 days, cells were dissociated with 0.25% trypsin-EDTA, FACS sorted for GFP to derive myogenic progenitors which were plated at a density of 2 million/T-75 flask in MM with 1 μg/ml dox and 5 ng/ml bFGF. Once the cells reached 90% confluency, myogenic progenitors were dissociated with 0.25% trypsin-EDTA and passaged at a ratio of 1:6 to 1:8. To induce terminal differentiation, myogenic progenitors at P3-4 were plated at a density of 75,000 cells/24-well plate and allowed to grow confluent for 3 days. The medium was then switched to low nutrient differentiation medium (DM) consisting of DMEM-KO supplemented with 20% KOSR, 1% NEAA, 1% glutamax and 1% penicillin-streptomycin and incubated for five days to derive myotubes. Transplantation Experiment
Small molecule library screening was done using the tocriscreen stem cell toolbox kit (tocris) which consisted of 80 compounds. Myogenic progenitors at passage P3 or P4 were seeded at 12,000 cells/well in 96-well plates (triplicates) and incubated at 37° C. for 3 days to reach 100% confluency. After 3 days, the cells were switched to DM supplemented with 10 μM of the compounds from the library or with DMSO. Cells were incubated in this differentiation medium for 5 days to derive myotubes. Cells were then fixed with 4% PFA and stained for MHC and DAPI. The stained plates were imaged using cytation plate reader and 49 pictures were taken per well to cover most of the area. The images were stitched together and the ratio of area of MHC/DAPI staining was quantified using Image J and normalized to that of DMSO treated cells. […] Different combinations were made with selected compounds and their effect on differentiation was tested and quantified. […]

[2] = test system: hiPS cell-derived myogenic progenitors; assay: Immunofluorescence staining for MHC and MYOG after terminal differentiation; conditions: for Myogenin (MYOG) immunofluorescence: clustering of myogenic nuclei / Myosin heavy chain (MHC) immunofluorescence: fusion, myotube thickness: KOSR-based differentiation medium; for Myosin heavy chain (MHC) immunofluorescence: fusion, myotube thickness: versus untreated control
Protocol: (§1) Human induced Pluripotent Stem Cells (hiPSC, PLZ) or Embryonic Stem Cells (hESC, H9) were transduced with the lentiviral constructs pSAM2-PAX7-ires-GFP and pFUGW-rtTA to generate doxycycline-inducible PAX7 (iPAX7) PS-cells as previously reported (Darabi, 2012). iPAX7-PS cells were cultured on matrigel-coated flasks using mTeSR1 medium (Stem Cell Technology). Cells were differentiated to myogenic progenitors as previously described (Darabi and Perlingeiro, 2016). Briefly, iPAX7-PS cells were detached with Accumax and 1×10^6 cells were plated in 6 cm non-adherent Petri dishes with mTeSR1 supplemented with 10 uM Y-27632 (ROCK inhibitor) and incubated at 37° C., 5% CO2 on a shaker at 60 RPM for 48 h. Then, medium was replaced with EB Myogenic (EBM) Medium supplemented with 10 uM […] (GSK3-β inhibitor) and 10 uM Y-27632. Three days later supplements were removed by changing to fresh medium. At day 7, EBs were plated on gelatin-coated flasks with EBM medium+10 ng/ml human basic FGF (bFGF) and three days later 1 ug/ml of doxycycline was added to the medium to induce PAX7 expression. Cells were harvested by trypsinization at day 14 and subsequently FACS sorted for GFP(+) expression. From this point, cells are considered as myogenic progenitors and cultured on gelatin-coated flasks using EBM medium+10 ng/ml bFGF+1 ug/ml Dox.
(§2) For terminal differentiation, myogenic progenitors at P3-P5 were plated on gelatin-coated dishes with EBM medium+10 ng/ml bFGF+1 ug/ml Dox. Upon reaching 100% confluency, medium was removed and replaced with knockout serum replacement (KOSR) or horse serum based terminal differentiation medium (TDM) supplemented with 10 uM DAPT, 10 uM BMS-906024.5 days after terminal differentiation, cells were fixed or collected for RNA analysis.
After 5 days of terminal differentiation, cells were washed with PBS and fixed with 4% PFA/PBS for 10 min. Then, cells were permeabilized with 0.3% Triton X-100/PBS for 15 min and blocked with 3% BSA/PBS for 20 min. Cells were incubated with a primary antibody that recognizes all MHC isoforms (MF-20, Developmental Studies Hybridoma Bank) overnight at 4° C. The next day, cells were incubated with an Alexa-555 secondary antibody supplemented with DAPI for 1 h at RT. Cells were analyzed by epifluorescence microscopy.

[3] = test system: hES (H9) and iPS (PLZ) cell-derived myogenic progenitors; assay: RT-qPCR of myotubes differentiated from myogenic progenitors with gamma secretase inhibitors; conditions: for mRNA expression level of MHC3 compared to non-treated cells / mRNA expression level of Myogenin compared to non-treated cells: 10 uM, KOSR- or horse serum-based media, 5 days at 37° C.
Protocol: as §1, §2
Differentiated myotubes (5d) were collected with TRIzol (Thermo Fisher Scientific) and RNA was purified using the Direct-zol RNA MiniPrep Plus (Zymo Research) following manufacturer's instructions. cDNA was obtained by RT-PCR using SuperScript VILO (Invitrogen) and qPCR was performed by using the Premix Ex Taq ROX plus (Takara) and TaMan probes (Thermo Fisher Scientific) specific to the genes of interest. qPCR was done with a QuantStudio 6 Flex Real-Time PCR System (Thermo Fisher Scientific). Data was normalized to GAPDH expression.

[4] = test system: hiPS cell-derived myogenic progenitors; assay: Western blot for MHC8 protein in terminally differentiated myotubes; conditions: horse serum-based differentiation medium, TUBB loading control
Protocol: as §1, with “Dox. […]” for “Dox.”

[5] = horse serum-based differentiation medium, hiPS

SMILES	myotube differentiation efficiency [1]	Myogenin (MYOG) immunofluorescence: clustering of myogenic nuclei [2]	Myosin heavy chain (MHC) immunofluorescence: fusion, myotube thickness [2]	mRNA expression level of MHC3 compared to non-treated cells [3]	mRNA expression level of Myogenin compared to non-treated cells [3]	efficiency of differentiation by MHC and MYOG immunofluorescence ([2]; horse serum-based (HS) differentiation medium)	neonatal Myosin Heavy Chain (MHC8) protein detection by Western blot [4]	expression level of CAPN3 compared to untreated control [3, 5] [fold]	expression level of embryonic myosin heavy chain (MHC3) [3, 5]	expression level of neonatal myosin heavy chain (MHC8) [3, 5]
NC(=O)c1ccc(-c2nc(-c3ccc4c(c3)OCO4)c(-c3ccccn3)[nH]2)cc1 [SB 431542]	promoted higher myotube differentiation efficiency	–	–	–	–	–	–	–	–	–
O=C(NOC[C@H](O)CO)c1ccc(F)c(F)c1Nc1ccc(I)cc1F [PD 0325901]	promoted higher myotube differentiation efficiency	–	–	–	–	–	–	–	–	–
CN1C(=O)[C@@H](NC(=O)[C@H](CCC(F)(F)F)[C@H](CCC(F)(F)F)C(N)=O)N=C(c2ccccc2)c2ccccc21 [BMS-906024]	–	induce clustering of the myogenic nuclei	improve the fusion of the nuclei to give rise to thick myotubes	increased mRNA expression levels	increased mRNA expression levels	–	–	–	–	–
CC(NC(=O)Cc1cc(F)cc(F)c1)C(=O)N[C@H](C(=O)OC(C)(C)C)c1ccccc1 (stereo partly shown) [DAPT]	promoted higher myotube differentiation efficiency	induce clustering of the myogenic nuclei	improve the fusion of the nuclei to give rise to thick myotubes	increased mRNA expression levels	increased mRNA expression levels	improves the efficiency of the differentiation	can be detected only in the presence of DAPT	5	enhances the expression levels	more than 200 fold
